Data as given in the supplement of paper PMC10290057.
Counter-ions that a name gives are not always drawn.

test system: HCT116; assay: efficacy (fitted maximal change in viability relative to DMSO control); higher = less cytotoxic (negative = loss of viability); settings: 48 h
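Further: Luminescence-based viability readout, five doses per compound, normalized against on-plate DMSO and empty-well controls, followed by dose-response curve fitting for every drug.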

Structure (SMILES)	efficacy [%]
CC(C)OC(=O)C(C(=O)OC(C)C)=C1S\C=C/S1 [Malotilate]	-26.9
COC(=O)C1=C(C)NC(C)=C(C(=O)OCCN2CCN(C(c3ccccc3)c3ccccc3)CC2)C1c1cccc([N+](=O)[O-])c1.Cl.Cl (stereo unspecified) [Manidipine]	-75
OC[C@@H](O)[C@@H](O)[C@H](O)[C@@H](O)CO [Mannitol]	13
Cc1nnc(C(C)C)n1C1CC2CCC(C1)N2CC[C@H](NC(=O)C1CCC(F)(F)CC1)c1ccccc1 (stereo partly specified) [Maraviroc]	-6.73
COC(=O)Nc1nc2cc(C(=O)c3ccccc3)ccc2[nH]1 [Mebendazole]	-65.1
CCOC(=O)c1c(C)n(C)c2ccc(O)cc12 [Mecarbinate]	-21.6
C[C@H]1C[C@@H]2[C@H](CC[C@@]3(C)[C@H]2CC[C@]3(OC(C)=O)C(C)=O)[C@@]\4(C)CCC(=O)\C=C14 [Medroxyprogesterone acetate]	-13.3
CC(=O)O[C@@]1(CC[C@H]2[C@@H]3\C=C(C)/C4=C/C(=O)CC[C@]4(C)[C@H]3CC[C@]12C)C(C)=O [Megestrol acetate]	-13.4
COc1ccc2[nH]cc(CCNC(C)=O)c2c1 [Melatonin]	-10.4
N[C@@H](Cc1ccc(N(CCCl)CCCl)cc1)C(=O)O [Melphalan]	-56.5
CC1=CC(=O)c2ccccc2C1=O [Menadione]	-10.7
O=S(=O)([O-])CCS [Mesna]	-8.13
C#C[C@]1(O)CC[C@H]2[C@@H]3CCc4cc(OC)ccc4[C@H]3CC[C@@]21C [Mestranol]	-33.5
CSCC[C@@H](NC(=O)[C@@H](Cc1ccccc1)NC(=O)CNC(=O)CNC(=O)[C@@H](N)Cc1ccc(O)cc1)C(=O)O [Metenkephalin]	-81.4
CN(C)C(=N)NC(=N)N [Metformin]	-21.8
CN(C)[C@H]\1[C@@H]2[C@@H](O)[C@@H]\3C(=C)C4=C(C(=CC=C4)O)C(=O)C3=C(\O)[C@@]2(O)C(=O)\C(=C1O)C(N)=O [Methacycline hydrochloride]	-9.07

Structure (SMILES)	efficacy [%]
C[C@](N)(Cc1ccc(O)c(O)c1)C(=O)O [Methyldopa]	-16.9
CN(C)c1ccc2nc3ccc(N(C)C)cc3[s+]c2c1.[Cl-] [Methylene blue]	-96.6
C[C@H]1C[C@H]2[C@@H]3CC[C@](O)(C(=O)CO)[C@@]3(C)C[C@H](O)[C@@H]2[C@@]\4(C)/C=C\C(=O)\C=C14 [Methylprednisolone]	20
CC#C[C@]1(O)CC[C@H]2[C@@H]/3CCC/4=C/C(=O)CCC4=C3[C@H](C[C@]12C)C5=CC=C(C=C5)N(C)C [Mifepristone]	-73.4
C\C1=C(\C=C(\C#N)C(=O)N1)C2=CC=NC=C2 [Milrinone]	-8.82
O=C(c1ccc(N[S+](=O)([O-])c2cccc3cccnc23)cc1)N1CCN(CC2CC2)CC1 [Mitapivat]	-18.2
CO[C@@]12[C@H](COC(N)=O)C/3=C(N1C[C@@H]4N[C@H]24)/C(=O)/C(=C(N)\C3=O)C [Mitomycin C]	-11.2
Clc1ccc(C(c2ccccc2Cl)C(Cl)Cl)cc1 (stereo unspecified) [Mitotane]	-92.3
NC(=O)c1ncn([C@@H]2O[C@H](CO)[C@@H](O)[C@H]2O)c1O [Mizoribine]	18
O=C\1N(N\C=C1[N]2C=CN=N2)C3=NC=NC(=C3)N4CCOCC4 [Molidustat]	-58.6
CCOC(=O)C/1=C(C)/NC(=S)NC1C2=CC=CC(=C2)O (stereo unspecified) [Monastrol]	-52.1
CCOc1cc(N)c(Cl)cc1C(=O)NCC1CN(Cc2ccc(F)cc2)CCO1 (stereo unspecified) [Mosapride citrate]	-28.4
CC1(C)CNc2cc(NC(=O)c3cccnc3NCc3ccncc3)ccc21 [Motesanib]	10.7
COc1c(N2C[C@@H]3CCCN[C@@H]3C2)c(F)cc2c(=O)c(C(=O)O)cn(C3CC3)c12.Cl.O [Moxifloxacin hydrochloride]	-9.48
OC1=CC2=C(C(=C1)O)C(=O)\C(=C(/O2)C3=CC(=C(O)C(=C3)O)O)O [Myricetin]	-26.3
